Km data for 1 molecule are collected here from patent publication US11781119B2, “Variant forms of urate oxidase and use thereof” (Horizon Therapeutics USA, Inc., priority 2005, dated 2023).

Holding throughout (assay type): biochemical
Settings in all cases: uric acid; sodium borate buffer, pH 9.2

The target of experiment [1] is T1, Aspergillus flavus uricase, native, commercial preparation (Merck) (Aspergillus flavus, UniProt Q00511).
T1 sequence (Q00511 1-302): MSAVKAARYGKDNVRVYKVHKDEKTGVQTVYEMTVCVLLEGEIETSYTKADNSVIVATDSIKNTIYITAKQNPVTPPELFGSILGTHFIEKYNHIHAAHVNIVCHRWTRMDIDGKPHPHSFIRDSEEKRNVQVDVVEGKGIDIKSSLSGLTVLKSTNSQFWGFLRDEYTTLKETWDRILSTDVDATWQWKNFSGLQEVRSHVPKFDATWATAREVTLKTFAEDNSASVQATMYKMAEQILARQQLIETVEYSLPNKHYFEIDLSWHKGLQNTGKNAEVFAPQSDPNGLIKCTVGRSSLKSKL
Procedure: (§1) Activity of uricase was measured by a UV method. […] Uricase potency is expressed in activity units per mg protein (U/mg).
(§2) The absorbance change with time (ΔA292 per minute) was derived from the linear portion of the curve.
(§3) The specific activity (potency) of uricase was calculated by dividing the activity in U/ml with protein concentration in mg/ml.

The test system of experiment [2] is Pig-baboon chimera (PBC) uricase, recombinant, pig uricase codons 1-225 joined in-frame to codons 226-304 of baboon uricase. From the text:
Pig-baboon chimera (PBC) uricase was constructed in order to gain higher expression, stability, and activity of the recombinant gene. […] The PBC uricase cDNA consists of the pig uricase codons 1-225 joined in-frame to codons 226-304 of baboon uricase.

Experiment [3] has as its target T2, Pig uricase, native, commercial preparation (Sigma) (Sus scrofa, UniProt P16164).
T2 sequence (P16164 1-304): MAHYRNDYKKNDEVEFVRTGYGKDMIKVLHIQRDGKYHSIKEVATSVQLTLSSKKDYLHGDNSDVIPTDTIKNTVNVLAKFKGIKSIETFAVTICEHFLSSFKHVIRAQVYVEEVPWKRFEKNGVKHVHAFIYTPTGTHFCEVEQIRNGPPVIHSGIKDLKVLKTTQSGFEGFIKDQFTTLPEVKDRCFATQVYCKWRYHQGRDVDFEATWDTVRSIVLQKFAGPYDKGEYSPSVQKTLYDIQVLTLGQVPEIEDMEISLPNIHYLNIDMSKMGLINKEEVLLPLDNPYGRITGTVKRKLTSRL
Procedure: as §1, §2, §3

Experiment [4] relates to Pig-baboon chimera (PBC) uricase variant PBC-ΔNC, recombinant, N-terminal six residues and C-terminal tri-peptide removed, SEQ ID NO. 12.
Procedure: as §1, §2, §3

As a reminder, the Km is the substrate concentration at which the rate is half of its maximum. Consider `O=c1[nH]c(=O)c2[nH]c(=O)[nH]c2[nH]1` [Uric Acid, uric acid], for which the Km in experiment [1] was determined as 23.5 µM; in experiment [2], 4.87 µM; in experiment [3], 5.85 µM; in experiment [4] it was 4.3 µM.
